Measured values from US20240228499A1, “MASP-2 INHIBITORS AND METHODS OF USE” (Omeros Corporation, priority 2022, published 2024).
Where a name gives a salt, the structure may show the parent alone.

Legend:
human a-thrombin = target: T1, human a-thrombin (Homo sapiens, UniProt P00734); assay: Enzymatic assay for thrombin (fluorogenic peptide substrate Boc-VPR-AMC); format: biochemical; conditions: room temperature, 20 mM Hepes pH 7.4, 20 min
T1 construct: enzyme (human a-thrombin (BioPharm® Lab.)); purchased BioPharm Lab
Outline: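 Human α-thrombin was incubated with serially diluted compound and fluorogenic substrate Boc-VPR-AMC in 20 mM Hepes pH 7.4, 140 mM NaCl, 0.1% Tween 20 at room temperature. The reaction was stopped after 20 min with 0.1 M acetic acid and fluorescence read. % activity was normalized to DMSO and no-enzyme controls, and IC50 was taken as equivalent to Ki.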

MASP-2 (CCP1-CCP2-SP) = target: T2, MASP-2 (CCP1-CCP2-SP) (Homo sapiens, UniProt O00187); assay: Enzymatic assay for MASP-2 inhibitory activity (fluorogenic substrate); format: biochemical; conditions: room temperature, 20 mM Hepes pH 7.4, 20 min
T2 construct: 15 μL of Enzyme MASP-2 (CCP1-CCP2-SP) in Assay Buffer
Outline: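 Human MASP-2 CCP1-CCP2-SP construct with a C2-cleavage-site fluorogenic substrate in 20 mM HEPES pH 7.4, 140 mM NaCl, 0.1% Tween 20, 20 min at room temperature before acetic acid stop. Activity normalised to DMSO and no-enzyme controls; IC50 taken as equivalent to Ki under linear conditions.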

T2 sequence (O00187 287-686 limits assumed): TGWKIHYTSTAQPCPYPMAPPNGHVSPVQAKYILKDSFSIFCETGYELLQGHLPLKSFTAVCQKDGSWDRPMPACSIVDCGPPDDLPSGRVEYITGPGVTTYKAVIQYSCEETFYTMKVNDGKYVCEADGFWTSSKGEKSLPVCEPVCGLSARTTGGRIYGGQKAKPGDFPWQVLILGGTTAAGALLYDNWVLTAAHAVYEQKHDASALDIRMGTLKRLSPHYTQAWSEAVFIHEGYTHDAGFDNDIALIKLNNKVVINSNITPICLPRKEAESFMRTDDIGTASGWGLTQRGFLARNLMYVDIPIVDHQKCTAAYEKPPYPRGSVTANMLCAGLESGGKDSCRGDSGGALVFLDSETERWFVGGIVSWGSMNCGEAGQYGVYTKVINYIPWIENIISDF

| Structure (SMILES) | Ki (human a-thrombin) | Ki (MASP-2 (CCP1-CCP2-SP)) |
| --- | --- | --- |
| Cc1nc(N)ccc1CNC(=O)[C@@H]1CCc2ncc(NCc3c(F)cccc3F)c(=O)n21 [Compound 32, (S)-N-((6-amino-2-methylpyridin-3-yl)methyl)-3-((2,6-difluorobenzyl)amino)-4-oxo-4,6,7,8-tetrahydropyrrolo[1,2-a]pyrimidine-6-carboxamide, di-trifluoroacetate] | 10000 to 25000 nM | < 500 nM |
| Cc1cc(C)cc(CNc2cnc3n(c2=O)[C@H](C(=O)NCc2ccc(N)nc2)CC3)c1 [Compound 4, (S)—N-((6-aminopyridin-3-yl)methyl)-3-((3,5-dimethylbenzyl)amino)-4-oxo-4,6,7,8-tetrahydropyrrolo[1,2-a]pyrimidine-6-carboxamide] | 500 to 2500 nM | < 500 nM |
| Cc1cc(C)cc(CNc2cnc3n(c2=O)[C@H](C(=O)NCc2cc4cnccc4[nH]2)CC3)c1 [Compound 6, (S)—N-((1H-pyrrolo[3,2-c]pyridin-2-yl)methyl)-3-((3,5-dimethylbenzyl)amino)-4-oxo-4,6,7,8-tetrahydropyrrolo[1,2-a]pyrimidine-6-carboxamide] | 2500 to 10000 nM | < 500 nM |
| COc1cc(Cl)cc(CNc2cnc3n(c2=O)[C@H](C(=O)N[C@@H]2CCc4nc(N)ccc42)CC3)c1 [Compound 87, (S)-N-((R)-2-amino-6,7-dihydro-5H-cyclopenta[b]pyridin-5-yl)-3-((3-chloro-5-methoxybenzyl)amino)-4-oxo-4,6,7,8-tetrahydro-pyrrolo[1,2-a]pyrimidine-6-carboxamide] | < 500 nM | < 500 nM |
| Cc1nc(N)ccc1CNC(=O)[C@@H]1CCc2ncc(NCc3cc(C(F)(F)F)ccc3F)c(=O)n21 [Compound 38, (S)-N-((6-amino-2-methylpyridin-3-yl)methyl)-3-((2-fluoro-5-(trifluoromethyl)benzyl)amino)-4-oxo-4,6,7,8-tetrahydro-pyrrolo[1,2-a]pyrimidine-6-carboxamide, di-trifluoroacetate] | 2500 to 10000 nM | < 500 nM |
| C#Cc1cccc(CNc2cnc3n(c2=O)[C@H](C(=O)N[C@@H]2CCc4nc(N)ccc42)CC3)c1 [Compound 98] | < 500 nM | < 500 nM |
| Cc1c(C#N)cccc1CNc1cnc2n(c1=O)[C@H](C(=O)N[C@@H]1CCc3nc(N)ccc31)CC2 [Compound 92, (S)-N-((R)-2-amino-6,7-dihydro-5H-cyclopenta[b]pyridin-5-yl)-3-((3-cyano-2-methylbenzyl)amino)-4-oxo-4,6,7,8-tetrahydro-pyrrolo[1,2-a]pyrimidine-6-carboxamide] | 2500 to 10000 nM | < 500 nM |
| Cc1cc(C)cc(CNc2cnc3n(c2=O)[C@@H](C(=O)NCc2ccc(N)nc2)CC3)c1 [Compound 79] | > 25000 nM | < 500 nM |
| Cc1nc(N)ccc1CNC(=O)[C@@H]1CCc2ncc(NCc3cccc(N4CCOCC4)c3)c(=O)n21 [Compound 11, (S)-N-((6-amino-2-methylpyridin-3-yl)methyl)-3-((3-morpholinobenzyl)amino)-4-oxo-4,6,7,8-tetrahydropyrrolo[1,2-a]pyrimidine-6-carboxamide, hydrochloride] | 500 to 2500 nM | < 500 nM |
| Cc1nc(N)ccc1CNC(=O)[C@@H]1CCc2ncc(NCc3cnn(-c4ccccc4)c3)c(=O)n21 [Compound 24, (S)—N-((6-amino-2-methylpyridin-3-yl)methyl)-4-oxo-3-(((1-phenyl-1H-pyrazol-4-yl)methyl)amino)-4,6,7,8-tetrahydropyrrolo[1,2-a]pyrimidine-6-carboxamide, trifluoroacetate] | 10000 to 25000 nM | < 500 nM |
| Cc1cc(C)cc(CNc2cnc3n(c2=O)[C@H](C(=O)N[C@@H](C)c2cc4c(s2)CNC4)CC3)c1 [Compound 107] | > 25000 nM | < 500 nM |
| Nc1ccc2c(n1)CC[C@H]2NC(=O)[C@@H]1CCc2ncc(NCc3cccc(-c4ccccc4)c3)c(=O)n21 [Compound 102] | 10000 to 25000 nM | < 500 nM |
| Cc1cc(C)cc(CNc2cnc3n(c2=O)[C@H](C(=O)N[C@@H](C)c2ccc(N)nc2)CC3)c1 [Compound 15, (S)—N—((S)-1-(6-aminopyridin-3-yl)ethyl)-3-((3,5-dimethylbenzyl)amino)-4-oxo-4,6,7,8-tetrahydropyrrolo[1,2-a]pyrimidine-6-carboxamide] | > 25000 nM | < 500 nM |
| Cc1nc(N)ccc1CNC(=O)[C@@H]1CCc2ncc(NCc3cccc(-n4cccn4)c3)c(=O)n21 [Compound 40, (S)-3-((3-(1H-pyrazol-1-yl)benzyl)amino)-N-((6-amino-2-methylpyridin-3-yl)methyl)-4-oxo-4,6,7,8-tetrahydropyrrolo[1,2-a]pyrimidine-6-carboxamide, trifluoroacetate] | 500 to 2500 nM | < 500 nM |
| Nc1ccc2c(n1)CC[C@H]2NC(=O)[C@@H]1CCc2ncc(NCc3cccc(C(F)F)c3)c(=O)n21 [Compound 84, (S)-N-((R)-2-amino-6,7-dihydro-5H-cyclopenta[b]pyridin-5-yl)-3-((3-(difluoromethyl)benzyl)amino)-4-oxo-4,6,7,8-tetrahydro-pyrrolo[1,2-a]pyrimidine-6-carboxamide] | 500 to 2500 nM | < 500 nM |
| Cc1cccc(CNc2cnc3n(c2=O)[C@H](C(=O)NCc2ccc(N)nc2C)CC3)c1F [Compound 33, (S)-N-((6-amino-2-methylpyridin-3-yl)methyl)-3-((2-fluoro-3-methylbenzyl)amino)-4-oxo-4,6,7,8-tetrahydropyrrolo[1,2-a]pyrimidine-6-carboxamide, di-trifluoroacetate] | 500 to 2500 nM | < 500 nM |
| Cc1ccc(CNc2cnc3n(c2=O)[C@H](C(=O)N[C@@H]2CCc4nc(N)ccc42)CC3)cc1C#N [Compound 88, (S)-N-((R)-2-amino-6,7-dihydro-5H-cyclopenta[b]pyridin-5-yl)-3-((3-cyano-4-methylbenzyl)amino)-4-oxo-4,6,7,8-tetrahydro-pyrrolo[1,2-a]pyrimidine-6-carboxamide] | 500 to 2500 nM | < 500 nM |
| Cc1ccc(CNc2cnc3n(c2=O)[C@H](C(=O)NCc2ccc(N)nc2C)CC3)cc1 [Compound 61] | 2500 to 10000 nM | < 500 nM |
| Cc1cccc(C(C)Nc2cnc3n(c2=O)[C@H](C(=O)NCc2cc4c(s2)CNC4)CC3)c1 (single isomer, unassigned) [Compound 70, di-trifluoroacetate] | 10000 to 25000 nM | < 500 nM |
| Cc1nc(N)ccc1CNC(=O)[C@@H]1CCc2ncc(NCc3cccc(OC4CC4)c3)c(=O)n21 [Compound 37, (S)-N-((6-amino-2-methylpyridin-3-yl)methyl)-3-((3-cyclopropoxybenzyl)amino)-4-oxo-4,6,7,8-tetrahydropyrrolo[1,2-a]pyrimidine-6-carboxamide, trifluoroacetate] | < 500 nM | < 500 nM |
| COc1cc(Cl)cc(CNc2cnc3n(c2=O)[C@H](C(=O)NCc2ccc(N)nc2C)CC3)c1 [Compound 74, (S)-N-((6-amino-2-methylpyridin-3-yl)methyl)-3-((3-chloro-5-methoxybenzyl)amino)-4-oxo-4,6,7,8-tetrahydropyrrolo[1,2-a]pyrimidine-6-carboxamide] | < 500 nM | < 500 nM |
| CC(=O)c1cccc(CNc2cnc3n(c2=O)[C@H](C(=O)N[C@@H]2CCc4nc(N)ccc42)CC3)c1 [Compound 104] | 500 to 2500 nM | < 500 nM |
| Cc1cc(CNc2cnc3n(c2=O)[C@H](C(=O)NCc2ccc(N)nc2C)CC3)cc(C(F)(F)F)c1 [Compound 29, (S)-N-((6-amino-2-methylpyridin-3-yl)methyl)-3-((3-methyl-5-(trifluoromethyl)benzyl)amino)-4-oxo-4,6,7,8-tetrahydro-pyrrolo[1,2-a]pyrimidine-6-carboxamide, di-trifluoroacetate] | 500 to 2500 nM | < 500 nM |
| Nc1ccc2c(n1)CC[C@H]2NC(=O)[C@@H]1CCc2ncc(NCc3cccc(CO)c3)c(=O)n21 [Compound 103] | 2500 to 10000 nM | < 500 nM |
| Cc1cccc(CNc2cnc3n(c2=O)[C@H](C(=O)NCc2ccc(N)nc2C)CC3)c1 [Compound 60, (S)—N-((6-amino-2-methylpyridin-3-yl)methyl)-3-((3-methylbenzyl)amino)-4-oxo-4,6,7,8-tetrahydropyrrolo[1,2-a]pyrimidine-6-carboxamide] | 500 to 2500 nM | < 500 nM |
| Cc1cc(C)cc(CNc2cnc3n(c2=O)[C@H](C(=O)NCc2cc(Cl)ccc2-n2cnnn2)CC3)c1 [Compound 5, (S)—N-(5-chloro-2-(1H-tetrazol-1-yl)benzyl)-3-((3,5-dimethylbenzyl)amino)-4-oxo-4,6,7,8-tetrahydropyrrolo[1,2-a]pyrimidine-6-carboxamide trifluoroacetic acid] | < 500 nM | < 500 nM |
